The source of these data is patent US10821115B2, “Compounds that inhibit Mcl-1 protein” (priority 2017, dated 2020).

SMILES strings stand for the structures. Like-named read-outs stand apart in the source and are kept apart here.

Assay [1] concerns the target recombinant human Mcl-1 (residues 171-327) / Bim interaction (Homo sapiens (Human), UniProt Q07820). Nature of the assay: biochemical. The format is binding.
The subject of assay [2] is human multiple myeloma cell line, OPM-2. Nature of the assay: Cell viability assay (OPM-2 10 FBS), CellTiter-Glo. The format is cell-based. In short, it runs like this: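 Steps: plate cells at 3000/well in 10% FBS growth medium, add serially diluted compound, incubate 16 h at 37 °C with 5% CO2, add detection reagent and read luminescence after 25 min. A 4-parameter logistic model gives IC50.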

Where [3] appears, read: 0.1 nM Mcl-1(171-327), 0.05 nM biotin-Bim (51-76), read-out: Mcl-1 HTRF IC50.
Where [4] appears, read: Homo sapiens, OPM-2, 16 h, read-out: OPM-2 10% FBS IC50 IP, OPM-2 cells, 10% FBS, 16 h incubation.
[5] abbreviates: TR-FRET, Mcl-1(171-327) / biotin-Bim (51-76), read-out: Mcl-1 HTRF IC50.
Setting [6] is: Homo sapiens, OPM-2, 16 h, read-out: OPM-2 10% FBS IC50 IP, OPM-2 cells, 10% FBS, 16 h, CellTiter-Glo.

Sequence of recombinant human Mcl-1 (residues 171-327) / Bim interaction (Q07820 171-327): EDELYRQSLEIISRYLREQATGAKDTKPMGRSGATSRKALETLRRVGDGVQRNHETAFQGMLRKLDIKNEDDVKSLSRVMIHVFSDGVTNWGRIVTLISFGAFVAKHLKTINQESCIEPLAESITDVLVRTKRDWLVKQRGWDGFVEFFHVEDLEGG

For the compound `CO[C@@]1(CN2CCN3C(=O)COC[C@@H]3C2)/C=C/C[C@H](C)[C@@H](C)S(=O)(=O)NC(=O)c2ccc3c(c2)N(C[C@@H]2CC[C@H]21)C[C@@]1(CCCc2cc(Cl)ccc21)CO3` [Example 141, (1S,3′R,6′R,7′S,8′E,11′S,12′R)-6-chloro-7′-methoxy-11′,12′-dimethyl-7′-(((9aS)-4-oxohexahydropyrazino[2,1-c][1,4]oxazin-8(1H)-yl)methyl)-3,4-dihydro-2H,15′H-spiro[naphthalene-1,22′-[20]oxa[13]thia[1,14]diazatetracyclo [14.7.2.0~3,6~.0~19,24~]pentacosa[8,16,18,24]tetraen]-15′-one 13′,13′-dioxide], the IC50 amounted to 0.152 nM in assay [1] (setting [3]) and 367 nM in assay [2] (setting [4]).
For the compound `C=CCC[C@@]1(O)/C=C/C[C@H](C)[C@@H](C)S(=O)(=O)NC(=O)c2ccc3c(c2)N(C[C@@H]2CC[C@H]21)C[C@@]1(CCCc2cc(Cl)ccc21)CO3` [Example 100158, (1S,3′R,6′R,7′R,8′E,11′S,12′R)-7′-(3-buten-1-yl)-6-chloro-7′-hydroxy-11′,12′-dimethyl-3,4-dihydro-2H,15′H-spiro[naphthalene-1,22′-[20]oxa[13]thia[1,14]diazatetracyclo [14.7.2.0~3,6~.0~19,24~]pentacosa[8,16,18,24]tetraen]-15′-one 13′,13′-dioxide], the IC50 in assay [1] (setting [5]) stood at 0.298 nM; in assay [2] (read-out: OPM-2 10% FBS IC50 IP, OPM-2 cells, 10% FBS, 16 h, CellTiter-Glo) it was 260 nM.
For `CCN1CCN(C[C@@]2(OC)/C=C/C[C@H](C)[C@@H](C)S(=O)(=O)NC(=O)c3ccc4c(c3)N(C[C@@H]3CC[C@H]32)C[C@@]2(CCCc3cc(Cl)ccc32)CO4)CC1` [Example 88, (1S,3′R,6′R,7′R,8′E,11′S,12′R)-6-chloro-7′-((4-ethyl-1-piperazinyl)methyl)-7′-methoxy-11′,12′-dimethyl-3,4-dihydro-2H,15′H-spiro[naphthalene-1,22′-[20]oxa[13]thia[1,14]diazatetracyclo [14.7.2.0~3,6~.0~19,24~]pentacosa[8,16,18,24]tetraen]-15′-one 13′,13′-dioxide], the half-maximal inhibitory concentration (IC50) in assay [1] (setting [3]) came out at 0.139 nM; in assay [2] (setting [4]) it was 74 nM.
The matching figures for `CO[C@@]1(CN2CCc3cncnc3C2)/C=C/C[C@H](C)[C@@H](C)S(=O)(=O)NC(=O)c2ccc3c(c2)N(C[C@@H]2CC[C@H]21)C[C@@]1(CCCc2cc(Cl)ccc21)CO3` [Example 211]: 0.147 nM and 156 nM.
As to `CO[C@@]1(CN2CCC3(CC2)COC3)/C=C/C[C@H](C)[C@@H](C)S(=O)(=O)NC(=O)c2ccc3c(c2)N(C[C@@H]2CC[C@H]21)C[C@@]1(CCCc2cc(Cl)ccc21)CO3` [Example 267, (1S,3′R,6′R,7′S,8′E,11′S,12′R)-6-chloro-7′-methoxy-11′,12′-dimethyl-7′-(2-oxa-7-azaspiro[3.5]non-7-ylmethyl)-3,4-dihydro-2H,15′H-spiro[naphthalene-1,22′-[20]oxa[13]thia[1,14]diazatetracyclo [14.7.2.0~3,6~.0~19,24~]pentacosa[8,16,18,24]tetraen]-15′-one 13′,13′-dioxide], the IC50 in assay [1] (setting [3]) is 0.297 nM; in assay [2] (setting [4]) it was 250 nM.
As to `CO[C@]1(CN2CCN3CCCC[C@@H]3C2)/C=C/C[C@H](C)[C@@H](CCN2CCOCC2)S(=O)(=O)NC(=O)c2ccc3c(c2)N(C[C@@H]2CC[C@H]21)C[C@@]1(CCCc2cc(Cl)ccc21)CO3` [Example 365, (1S,3′R,6′R,7′R,8′E,11′S,12′R)-6-chloro-7′-methoxy-11′-methyl-12′-(2-(4-morpholinyl)ethyl)-7′-((9aR)-octahydro-2H-pyrido[1,2-a]pyrazin-2-ylmethyl)-3,4-dihydro-2H,15′H-spiro[naphthalene-1,22′-[20]oxa[13]thia[1,14]diazatetracyclo [14.7.2.0~3,6~.0~19,24~]pentacosa[8,16,18,24]tetraen]-15′-one 13′,13′-dioxide], the IC50 worked out at 0.104 nM in assay [1] (setting [3]) and 32 nM in assay [2] (setting [4]).
As for `CO[C@@]1(CN2CCc3ncncc3C2)/C=C/C[C@H](C)[C@@H](C)S(=O)(=O)NC(=O)c2ccc3c(c2)N(C[C@@H]2CC[C@H]21)C[C@@]1(CCCc2cc(Cl)ccc21)CO3` [Example 223, (1S,3′R,6′R,7′S,8′E,11′S,12′R)-6-chloro-7′-(7,8-dihydropyrido[4,3-d]pyrimidin-6(5H)-ylmethyl)-7′-methoxy-11′,12′-dimethyl-3,4-dihydro-2H,15′H-spiro[naphthalene-1,22′-[20]oxa[13]thia[1,14]diazatetracyclo [14.7.2.0~3,6~.0~19,24~]pentacosa[8,16,18,24]tetraen]-15′-one 13′,13′-dioxide], the IC50 in assay [1] (setting [3]) turned out to be 0.251 nM; in assay [2] (setting [4]), 258 nM.
As to `C[C@@H]1[C@@H](C)C/C=C/[C@@](O)(C(F)(F)F)[C@@H]2CC[C@H]2CN2C[C@@]3(CCCc4cc(Cl)ccc43)COc3ccc(cc32)C(=O)NS1(=O)=O` [Example 100045, (1S,3′R,6′R,7′S,8′E,11′S,12′R)-6-chloro-7′-hydroxy-11′,12′-dimethyl-7′-(trifluoromethyl)-3,4-dihydro-2H,15′H-spiro[naphthalene-1,22′-[20]oxa[13]thia[1,14]diazatetracyclo [14.7.2.0~3,6~.0~19,24~]pentacosa[8,16,18,24]tetraen]-15′-one 13′,13′-dioxide], the IC50 in assay [1] (setting [5]) was determined as 0.308 nM; in assay [2] (setting [6]) it was 342 nM.
Regarding `CO[C@]1(CN2CCN(C)CC2)/C=C/C[C@H](C)[C@@H](C)S(=O)(=O)NC(=O)c2ccc3c(c2)N(C[C@@H]2CC[C@H]21)C[C@@]1(CCCc2cc(Cl)ccc21)CO3` [Example 62], the IC50 in assay [1] (setting [3]) is 0.115 nM; in assay [2] (setting [4]) it was 110 nM.
`C[C@@H]1[C@@H](C)C/C=C/[C@](O)(c2ncccc2F)[C@@H]2CC[C@H]2CN2C[C@@]3(CCCc4cc(Cl)ccc43)COc3ccc(cc32)C(=O)NS1(=O)=O` [Example 100385, (1S,3′R,6′R,7′R,8′E,11′S,12′R)-6-chloro-7′-(3-fluoro-2-pyridinyl)-7′-hydroxy-11′,12′-dimethyl-3,4-dihydro-2H,15′H-spiro[naphthalene-1,22′-[20]oxa[13]thia[1,14]diazatetracyclo [14.7.2.0~3,6~.0~19,24~]pentacosa[8,16,18,24]tetraen]-15′-one 13′,13′-dioxide]: the IC50 in assay [1] (setting [5]) was 0.144 nM; in assay [2] (setting [6]), 144 nM.
Consider `C[C@@H]1[C@@H](C)CCC[C@]2(CC(N(C)C)=NO2)[C@@H]2CC[C@H]2CN2C[C@@]3(CCCc4cc(Cl)ccc43)COc3ccc(cc32)C(=O)NS1(=O)=O` [Example 100136, (1S,3′R,6′R,7′S,11′S,12′R)-6-chloro-3″- (dimethylamino)-11′,12′-dimethyl-3,4-dihydro-2H,4″H,15′H-dispiro[naphthalene-1,22′-[20]oxa[13]thia[1,14]diazatetracyclo [14.7.2.0~3,6~.0~19,24~]pentacosa[16,18,24]triene-7′,5″-[1,2]oxazol]-15′-one 13′,13′-dioxide], for which the IC50 in assay [1] (setting [5]) is 0.368 nM; in assay [2] (setting [6]), 556 nM.
`C[C@@H]1[C@@H](C)C/C=C/[C@](C)(O)[C@@H]2CC[C@H]2CN2C[C@@]3(CCCc4cc(Cl)ccc43)COc3ccc(cc32)C(=O)NS1(=O)=O` [Example 100016, (1S,3′R,6′R,7′S,8′E,11′S, 12′R)-6-chloro-7′-hydroxy-7′,11′,12′-trimethyl-3,4-dihydro-2H,15′H-spiro[naphthalene-1,22′-[20]oxa[13]thia[1,14]diazatetracyclo[14.7.2.0-3,6˜.0˜19,24˜]pentacosa[8,16,18,24]tetraen]-15′-one 13′,13′-dioxide]: the IC50 in assay [1] (Mcl-1 HTRF IC50) was 0.182 nM; in assay [2] (setting [6]), 132 nM.
